Assay results published in the supplement of paper PMC11997997.

How the values were obtained:
[1] = tested on: murine bone marrow-derived macrophages; test: area under cytotoxicity dose-response curve (AUC (% cytotoxicity x dose, relative)); higher = more cytotoxic; details: duration: 6 days; dose range: 0.13-80 uM, 8 points
Summary of the method: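 Values are the area under the cytotoxicity dose–response curve, calculated with GraphPad Prism version 10. Primary murine bone marrow-derived macrophages were exposed to final concentrations of 80–0.13 μM for 6 days, and viability was read by CellTiter-Glo luminescence with normalisation to vehicle and positive control wells.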

[2] = tested on: Mycobacterium tuberculosis CDC1551 (intracellular, in murine BMDM); test: area under intracellular growth-inhibition dose-response curve (AUC (% inhibition x dose, relative)); higher = more potent; details: duration: 6 days; dose range: 0.13-80 uM, 8 points
Summary of the method: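 The value is the area under the growth-inhibition dose–response curve, calculated in GraphPad Prism. Primary murine bone marrow-derived macrophages were seeded in 384-well opaque plates and, 24 h later, infected for 1 h with luciferase-expressing M. tuberculosis CDC1551 at multiplicity of infection 1. Cells were then exposed for 6 days to an 8-dose, 2.5-fold series (final 80–0.13 μM). Growth was read with the Bright-Glo luciferin assay and normalised to a reference drug control and to the lowest-concentration wells.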

SMILES	area under cytotoxicity dose-response curve [1]	area under intracellular growth-inhibition dose-response curve [2]
Cc1ccc(C(=O)NC2CCCCCC2)o1	< 0	263
O=C(Cn1nnc(-c2ccc(F)cc2)n1)Nc1cccc(S(=O)(=O)N2CCCC2)c1	11.8	73.7
c1ccc(Cc2nnc(-c3ccccc3)o2)cc1	39.3	264
Cc1ccccc1N1CCN(Cc2ccc([N+](=O)[O-])o2)CC1	< 0	263
CCCC(=O)NC(=S)Nc1ccc(NC(=O)c2cccs2)cc1	8.63	261
CCOc1c(Cl)cc(/C=N/NC(N)=S)cc1OC	< 0	266
CCC(=O)N1CCN(c2ccc(NC(=S)NC(=O)COc3ccccc3)cc2)CC1	76.2	194
CCCCN(C(=O)c1ccco1)c1c(N)n(CCC)c(=O)[nH]c1=O	53.6	< 0
OC(CCCC(O)c1ccccc1)c1ccccc1 (stereo not drawn)	31.6	203
Cc1nn2c(O)cc(-c3ccc([N+](=O)[O-])cc3)nc2c1-c1ccccc1	99.5	128
O=C(Nc1ccc2c(c1)OCCO2)NC12CC3CC(CC(C3)C1)C2	22.8	136
O=C(NC1CCCCCC1)c1ccc(Br)o1	27.7	231
CC1CCC(C(C)C)C(OC(=O)Cn2c(COc3ccccc3)[n+](C)c3ccccc32)C1.[Cl-] (stereo not drawn)	39.3	201
Cc1ccc(-c2nnc(NC(=O)c3ccc([N+](=O)[O-])o3)o2)c(C)c1	91.5	78.2
CNc1cc(Cl)c2nonc2c1[N+](=O)[O-]	10.1	3.12
O=C(N/N=C/c1ccccc1Cl)c1ccncc1	69.2	234
CNc1ccc2oc(C[C@H]3O[C@@]4(CC[C@H]3C)O[C@H]([C@H](C)C(=O)c3ccc[nH]3)[C@H](C)C[C@H]4C)nc2c1C(=O)O	9.01	148
CCOc1ccc(C(=O)Nc2ccc(NC(=S)NC(=O)CC)cc2)cc1Cl	< 0	179
Clc1ccc(-c2nnc(C3CCCCC3)o2)cc1	< 0	212
CCCn1c(-c2cccs2)nc2ccccc21	< 0	103
CNC(=S)Nc1ccc(OCc2ccccc2)cc1	75.3	242
COc1ccc(OC)c(/C=N/NC(=O)c2ccncc2)c1	66.9	254

SMILES	area under cytotoxicity dose-response curve [1]	area under intracellular growth-inhibition dose-response curve [2]
CCCc1cc(C(=O)NC2CCCCC2)no1	108	232
CSCCC(NC(=O)c1ccccc1Br)C(=O)NNC(=O)c1ccncc1 (stereo not drawn)	12.7	244
Cc1cc(OCCCCn2ccnc2)cc(C)c1Cl.Cl	24	174
Cl.c1ccc(-c2nc(NCCCn3ccnc3)c3oc4ccccc4c3n2)cc1	34.7	172
CC(NC(=O)c1cccs1)c1ccc(Cl)cc1 (stereo not drawn)	2.59	251
CCOC1OC(O)=C(Cl)/C1=N\c1ccccc1C (stereo not drawn)	< 0	231
CCOc1ccc(NC(=O)CCc2nnc3ccc(N4CCC(C)CC4)nn23)cc1	65.6	30.4
C/C(CC(=O)Nc1cccc(C(F)(F)F)c1)=N\NC(=O)c1ccncc1	< 0	212
Cn1c(COc2ccc(Cl)cc2)nnc1SCC(=O)NC1CC1	96	24.4
CC1CCN(C(=O)C2CCN(c3ncnc4c3nc3n4CCCCC3)CC2)CC1	35.4	176
CCOC(=O)c1cc(-c2csc(-c3ccc(C(C)(C)C)cc3)n2)on1	79.1	231
Clc1cnc(N/N=C/c2ccco2)c(Cl)c1	93.8	189
O=C(CC12CC3CC(CC(C3)C1)C2)NCc1ccco1	60.5	224
Nc1nc(Cl)nc2c1ncn2[C@@H]1O[C@H](CO)[C@@H](O)[C@H]1O	81.9	205
COCCCNCC(=O)Nc1sc(C)c(C)c1C(=O)OC.O=C(O)C(=O)O	48.9	76.8
COc1cc(OC)c2c(OC)cccc2n1	101	92.3
CC(C)CC(=O)NC(=S)Nc1ccc(NC(=O)c2cccs2)cc1	33.2	271
CC(NC(=O)c1cc2ccccc2o1)c1cccs1 (stereo not drawn)	< 0	257
CCN1CCN(c2cc3c(cc2F)c(=O)c(C(=O)O)cn3C2CC2)CC1	7.13	258
CCOc1ccc(/C=N/NC(N)=S)cc1	28.9	270
Cc1cc(/C=N/NC(N)=S)c(C)n1-c1cccc(Cl)c1	34	190
O=C(NCCC1CCCC1)c1cccs1	13.7	200

SMILES	area under cytotoxicity dose-response curve [1]	area under intracellular growth-inhibition dose-response curve [2]
O=C(NCc1ccccc1)C1COc2ccccc2O1 (stereo not drawn)	14.8	193
CCCC12CN3CCN(CC(C3)/C1=N\NC(=O)c1ccncc1)C2	28.1	233
O=C(Nc1ccc([N+](=O)[O-])cc1Cl)c1cc(Cl)ccc1O	108	151
CCOc1ccc(NC(=S)Nc2ccc(OC)cc2)cc1	13	233
COc1ccc(CCNc2cc(-c3ccccc3)nc3ncnn23)cc1	< 0	218
C/C(=N\Nc1nc(C)c(C)s1)c1ccc([N+](=O)[O-])cc1	< 0	222
O=C(Cn1c(=O)cnc2ccccc21)Nc1cccc(S(=O)(=O)N2CCOCC2)c1	30.4	23.9
Cc1ccc2nc(C)cc(S)c2c1	< 0	108
Cc1c(Cc2ccccc2)c(NCCCO)n2c(nc3ccccc32)c1C#N	< 0	148
COc1ccc(-c2n(C)c3ccccc3[n+]2CC(=O)OC2CC(C)CCC2C(C)C)cc1.[Cl-] (stereo not drawn)	117	140
O=C(COC(=O)Cc1ccc(Cl)cc1)NCc1cccs1	18.4	37.1
CNC(=S)N/C=N/OCc1c(Cl)cccc1Cl	86.9	83.8
Cc1cc(OCC(=O)N2CCCC2)cc(C)c1Cl	< 0	254
CCOC(=O)c1cc(-c2ccc(N3CCOCC3)cc2)nn1-c1ccc(F)cc1F	22.7	15.8
CN(Cc1ccccc1)c1ccc2nnc(-c3ccccc3)n2n1	< 0	169
CCOc1ccc(OCCCC(=O)NNC(=O)c2ccncc2)cc1	< 0	272
CC(NC(=S)Nc1ccc(OC(F)F)c(Cl)c1)C(C)(C)C (stereo not drawn)	12.4	198
Cc1cc2oc(=O)cc(-c3ccccc3)c2c(C)c1-c1ccc(C#N)cc1	110	272
O=C(N/N=C/c1ccc(O)cc1)c1ccncc1	1.59	168
C[C@H]1COc2c(N3CCN(C)CC3)c(F)cc3c(=O)c(C(=O)O)cn1c23	137	200
